Key:
rat [1] = details: Sub-acute repeat dose toxicity, sprague dawley, Oral, Gavage/Intubation, dose end: 28 day, group: systemic
rabbit = details: Sub-acute repeat dose toxicity, Oral, Gavage/Intubation, dose end: 5 day, group: systemic
rat [2] = details: Sub-acute repeat dose toxicity, Oral, Gavage/Intubation, dose end: 14 day, group: systemic
dog [3] = details: Sub-acute repeat dose toxicity; beagle; Oral; Gavage/Intubation; dose end: 5 day; group: systemic; systemic / in life observation / clinical signs / emesis
primate [4] = details: Sub-acute repeat dose toxicity; Oral; Gavage/Intubation; dose end: 35 day; group: systemic; systemic / in life observation / clinical signs / emesis
primate [5] = details: Sub-acute repeat dose toxicity; Oral; Gavage/Intubation; dose end: 8 day; group: systemic; systemic / hematology / neutrophils / neutrophils + systemic / in life observation / body weight / body weight + systemic / in life …
primate [6] = details: Sub-acute repeat dose toxicity, Oral, Gavage/Intubation, dose end: 15 day, group: systemic
primate [7] = details: Sub-acute repeat dose toxicity; Oral; Gavage/Intubation; dose end: 5 day; group: systemic; systemic / clinical chemistry / alanine aminotransferase (alt/sgpt) / alanine aminotransferase (alt/sgpt) + systemic / clinical chemistry / …
mouse [8] = details: Carcinogenicity, cd1, Oral, Feed, dose end: 18 month, group: systemic
dog [9] = details: Chronic toxicity, beagle, Oral, Feed, dose end: 52 week, group: systemic
rat [10] = details: Subchronic oral toxicity in rodents, sprague dawley, Feed, dose end: 90 day, group: systemic
mouse [11] = details: Subchronic oral toxicity in rodents, cd1, Feed, dose end: 90 day, group: systemic
dog [12] = details: Subchronic oral toxicity in nonrodent, beagle, Feed, dose end: 90 day, group: systemic
rat [13] = details: Prenatal developmental toxicity study, other, Oral, Gavage/Intubation, dose end: 16 GD
rat [14] = details: Multigenerational reproductive toxicity study, other, Oral, Feed, dose end: 2 generation
mouse [15] = details: Carcinogenicity; cd1; Oral; Feed; dose end: 18 month; group: systemic; systemic / in life observation / body weight / body weight + systemic / in life observation / body weight / body weight gain
rat [16] = details: Multigenerational reproductive toxicity study, sprague dawley, Oral, Gavage/Intubation, dose end: 2 generation
rat [17] = details: Subchronic oral toxicity in rodents, sprague dawley, Gavage/Intubation, dose end: 90 day
rat [18] = details: Combined chronic toxicity/carcinogenicity, sprague dawley, Oral, Gavage/Intubation, dose end: 104 week
[19] = systemic / hematology / fibrinogen / fibrinogen + systemic / hematology / leukocyte (wbc) count differential / leukocyte (wbc) + systemic / …
[20] = systemic / pathology microscopic / blood / vasculitis + systemic / pathology microscopic / kidney / degeneration + systemic / pathology …
[21] = systemic / in life observation / clinical signs / [other] + systemic / in life observation / clinical signs / abnormal feces + systemic / in…
[22] = systemic / in life observation / clinical signs / abnormal feces + systemic / in life observation / clinical signs / general pallor + …
[23] = systemic / in life observation / clinical signs / nasal discharge + systemic / in life observation / clinical signs / salivation
[24] = systemic / pathology gross / intestine large / dilatation + systemic / pathology gross / intestine small / dilatation + systemic / pathology…
[25] = systemic / clinical chemistry / alanine aminotransferase (alt/sgpt) / alanine aminotransferase (alt/sgpt) + systemic / clinical chemistry / …
[26] = systemic / in life observation / body weight / body weight + systemic / in life observation / clinical signs / abnormal feces + systemic / …
[27] = systemic / clinical chemistry / alanine aminotransferase (alt/sgpt) / alanine aminotransferase (alt/sgpt) + systemic / pathology microscopic…
[28] = systemic / hematology / erythrocyte (rbc) count differential / erythrocyte (rbc) + systemic / hematology / hematocrit (hct) / hematocrit (…
[29] = systemic / hematology / hemoglobin (hgb) / hemoglobin (hgb) + systemic / in life observation / body weight / body weight gain + systemic / …
[30] = systemic / pathology microscopic / liver / pigmentation
[31] = group: developmental, developmental / developmental malformation / bone / malformation, total + developmental / developmental malformation / bone / misshapen + …
[32] = group: maternal, reproductive / reproductive performance / resorptions / resorptions + reproductive / reproductive performance / estrous cycle / corpora …
[33] = group: offspring, developmental / offspring survival late / lactation index / lactation index + developmental / offspring survival late / viability index / …
[34] = group: parental, systemic / hematology / methemoglobin / methemoglobin
[35] = group: reproductive, reproductive / reproductive performance / gestational length / gestational length + reproductive / reproductive performance / implantations…
[36] = group: cholinesterase, cholinesterase / cholinesterase / cholinesterase / plasma cholinesterase (che)
[37] = group: offspring, systemic / in life observation / body weight / offspring (pup) weight
[38] = group: reproductive, reproductive / reproductive performance / estrous cycle / corpora lutea
[39] = group: reproductive, reproductive / reproductive performance / estrous cycle / corpora lutea + reproductive / reproductive performance / fertility / fertility + …
[40] = group: cholinesterase, cholinesterase / cholinesterase / cholinesterase / plasma cholinesterase (che) + cholinesterase / cholinesterase / cholinesterase / brain …
[41] = group: systemic, systemic / in life observation / clinical signs / pupillary function (dilation or constriction)
[42] = group: systemic, systemic / in life observation / clinical signs / pupillary function (dilation or constriction) + systemic / in life observation / body …
[43] = group: cholinesterase, cholinesterase / cholinesterase / cholinesterase / brain cholinesterase (che) + cholinesterase / cholinesterase / cholinesterase / plasma …
[44] = group: cholinesterase, cholinesterase / cholinesterase / cholinesterase / erythrocyte cholinesterase (che)
[45] = group: systemic, systemic / pathology microscopic / liver / adenoma/carcinoma combined

CC(C)(O)c1ccc(CNC(=O)c2cccnc2Oc2ccc(F)cc2)cc1
LOAEL (rat [1]; [19]): > 20 mg/kg/day | NOAEL (rat [1]; [19]): ≥ 20 mg/kg/day | LEL (rat [1]; [20]): 1 mg/kg/day | NEL (rat [1]; [20]): < 1 mg/kg/day | LOAEL (rabbit; [21]): > 20 mg/kg/day | NOAEL (rabbit; [21]): ≥ 20 mg/kg/day | LEL (rabbit; [22]): 1 mg/kg/day | NEL (rabbit; [22]): < 1 mg/kg/day | LEL (rat [2]; [23]): 3 mg/kg/day | NEL (rat [2]; [23]): < 3 mg/kg/day | LOAEL (rat [2]; [24]): > 30 mg/kg/day | NOAEL (rat [2]; [24]): ≥ 30 mg/kg/day | LEL (dog [3]): 10 mg/kg/day | LOAEL (dog [3]): > 10 mg/kg/day | NEL (dog [3]): < 10 mg/kg/day | NOAEL (dog [3]): ≥ 10 mg/kg/day | LEL (primate [4]): 1 mg/kg/day | LOAEL (primate [4]): > 1 mg/kg/day | NEL (primate [4]): < 1 mg/kg/day | NOAEL (primate [4]): ≥ 1 mg/kg/day | LEL (primate [5]): 1 mg/kg/day | LOAEL (primate [5]): > 1 mg/kg/day | NEL (primate [5]): < 1 mg/kg/day | NOAEL (primate [5]): ≥ 1 mg/kg/day | LOAEL (primate [6]; [25]): > 20 mg/kg/day | NOAEL (primate [6]; [25]): ≥ 20 mg/kg/day | LEL (primate [6]; [26]): 3 mg/kg/day | NEL (primate [6]; [26]): < 3 mg/kg/day | LEL (primate [7]): 20 mg/kg/day | LOAEL (primate [7]): > 20 mg/kg/day | NEL (primate [7]): < 20 mg/kg/day | NOAEL (primate [7]): ≥ 20 mg/kg/day

C#CCOc1cc(-n2nc3n(c2=O)CCCC3)c(Cl)cc1Cl [Azafenidin]
NEL (mouse [8]; systemic / pathology gross / full gross necropsy / proliferation): 4 mg/kg/day | LOAEL (mouse [8]; systemic / pathology microscopic / liver / adenoma + systemic / pathology microscopic / liver / pigmentation): 39.8 mg/kg/day | NOAEL (mouse [8]; systemic / pathology microscopic / liver / adenoma + systemic / pathology microscopic / liver / pigmentation + systemic / hematology / mean …): 4 mg/kg/day | LEL (mouse [8]; systemic / pathology microscopic / liver / adenoma + systemic / pathology microscopic / liver / pigmentation + systemic / pathology gross / …): 39.8 mg/kg/day | LOAEL (dog [9]; [27]): 0.86 mg/kg/day | NOAEL (dog [9]; [27]): 0.3 mg/kg/day | LEL (dog [9]; systemic / pathology microscopic / liver / cytoplasmic alteration): 0.3 mg/kg/day | NEL (dog [9]; systemic / pathology microscopic / liver / cytoplasmic alteration + systemic / clinical chemistry / alanine aminotransferase (alt/sgpt) / …): 0.16 mg/kg/day | LOAEL (rat [10]; [28]): 71.9 mg/kg/day | NEL (rat [10]; [28]): 4.02 mg/kg/day | NOAEL (rat [10]; [28]): 24.2 mg/kg/day | LEL (rat [10]; systemic / organ weight / kidney / relative to body weight): 24.2 mg/kg/day | LOAEL (mouse [11]; [29]): 144 mg/kg/day | NEL (mouse [11]; [29]): 7.94 mg/kg/day | NOAEL (mouse [11]; [29]): 47.2 mg/kg/day | LEL (mouse [11]; [30]): 47.2 mg/kg/day | LOAEL (dog [12]; systemic / pathology microscopic / liver / hypertrophy + systemic / pathology microscopic / liver / pigmentation): 2.02 mg/kg/day | NOAEL (dog [12]; systemic / pathology microscopic / liver / hypertrophy + systemic / pathology microscopic / liver / pigmentation + systemic / clinical …): 0.34 mg/kg/day | LEL (dog [12]; [30]): 0.34 mg/kg/day | NEL (dog [12]; [30]): < 0.34 mg/kg/day | LEL (rat [13]; [31]): 24 mg/kg/day | LOAEL (rat [13]; [31]): 24 mg/kg/day | NEL (rat [13]; [31]): 16 mg/kg/day | NOAEL (rat [13]; [31]): 16 mg/kg/day | LEL (rat [13]; group: maternal, reproductive / reproductive performance / estrous cycle / corpora lutea): 16 mg/kg/day | LOAEL (rat [13]; group: maternal, reproductive / reproductive performance / resorptions / resorptions): 24 mg/kg/day | NEL (rat [13]; [32]): 8 mg/kg/day | NOAEL (rat [13]; [32]): 16 mg/kg/day | LEL (rat [14]; [33]): 14.5 mg/kg/day | LOAEL (rat [14]; [33]): 14.5 mg/kg/day | NEL (rat [14]; [33]): 2.33 mg/kg/day | NOAEL (rat [14]; [33]): 2.33 mg/kg/day | LEL (rat [14]; [34]): 0.389 mg/kg/day | NEL (rat [14]; [34]): < 0.389 mg/kg/day | LOAEL (rat [14]; group: parental, systemic / in life observation / food consumption / food consumption + systemic / in life observation / mortality / mortality): 78.6 mg/kg/day | NOAEL (rat [14]; group: parental, systemic / in life observation / food consumption / food consumption + systemic / in life observation / mortality / mortality + systemic / …): 14.4 mg/kg/day | LEL (rat [14]; [35]): 14.4 mg/kg/day | LOAEL (rat [14]; [35]): 14.4 mg/kg/day | NEL (rat [14]; [35]): 2.31 mg/kg/day | NOAEL (rat [14]; [35]): 2.31 mg/kg/day

COC(=O)C=C(C)OP(=O)(OC)OC [Mevinphos]
LEL (mouse [15]): 3.7 mg/kg/day | LOAEL (mouse [15]): 3.7 mg/kg/day | NEL (mouse [15]): 1.5 mg/kg/day | NOAEL (mouse [15]): 1.5 mg/kg/day | LEL (rat [16]; [36]): 0.05 mg/kg/day | LOAEL (rat [16]; [36]): 0.05 mg/kg/day | NEL (rat [16]; [36]): < 0.05 mg/kg/day | NOAEL (rat [16]; [36]): < 0.05 mg/kg/day | LOAEL (rat [16]; [33]): > 0.5 mg/kg/day | NOAEL (rat [16]; [33]): ≥ 0.5 mg/kg/day | LEL (rat [16]; [37]): 0.05 mg/kg/day | NEL (rat [16]; [37]): < 0.05 mg/kg/day | NEL (rat [16]; group: parental, systemic / in life observation / clinical signs / ataxia + systemic / in life observation / clinical signs / oral discharge + systemic / in …): 0.1 mg/kg/day | NOAEL (rat [16]; group: parental, systemic / organ weight / ovary / relative to body weight + systemic / in life observation / body weight / body weight): 0.1 mg/kg/day | LOAEL (rat [16]; group: parental, systemic / organ weight / ovary / relative to body weight + systemic / organ weight / testes / absolute): 0.5 mg/kg/day | LEL (rat [16]; group: parental, systemic / organ weight / ovary / relative to body weight + systemic / organ weight / testes / absolute + systemic / in life observation / …): 0.5 mg/kg/day | NEL (rat [16]; [38]): 0.1 mg/kg/day | NOAEL (rat [16]; [38]): 0.1 mg/kg/day | LEL (rat [16]; [39]): 0.5 mg/kg/day | LOAEL (rat [16]; [39]): 0.5 mg/kg/day | LEL (rat [17]; [36]): 0.056 mg/kg/day | LOAEL (rat [17]; [36]): 0.056 mg/kg/day | NEL (rat [17]; [40]): 0.011 mg/kg/day | NOAEL (rat [17]; [40]): 0.011 mg/kg/day | LEL (rat [17]; [41]): 0.056 mg/kg/day | LOAEL (rat [17]; [41]): 0.056 mg/kg/day | NEL (rat [17]; [42]): 0.011 mg/kg/day | NOAEL (rat [17]; [42]): 0.011 mg/kg/day | LOAEL (rat [18]; [43]): 0.35 mg/kg/day | NOAEL (rat [18]; [43]): 0.025 mg/kg/day | LEL (rat [18]; [44]): 0.025 mg/kg/day | NEL (rat [18]; [44]): < 0.025 mg/kg/day | LEL (rat [18]; [45]): 0.6 mg/kg/day | LOAEL (rat [18]; [45]): > 0.6 mg/kg/day | NEL (rat [18]; [45]): 0.35 mg/kg/day | NOAEL (rat [18]; [45]): ≥ 0.6 mg/kg/day
